From US11690828B2, “Treatment of CNS diseases with sGC stimulators” (Cyclerion Therapeutics, Inc., priority 2016, dated 2023)

System: BDNF
Assay: Effect on BDNF protein in the rat dorsal striatum, quinolinic acid lesion model
Format: in vivo
Settings: 10 mg/kg once a day for 7 days
Method: Protocol. Experimental day 1: Rats were deeply anesthetized with isoflurane and each rat received a unilateral infusion of 0.25 μl of 50 mM quinolinic acid (QA) in the dorsal striatum (12.5 nmoles of QA on the left or right hemisphere). The dorsal striatum contralateral to the QA infusion on each rat received a control infusion of 0.25 μl PBS (control side). Some animals were dosed S.C. with vehicle (n=5) or 10 mg/Kg Compound I-2 (n=6) about 30 minutes after QA infusion. Experimental days 2-8: Rats were dosed every 24 h P.O. with Vehicle or 10 mg/Kg Compound I-2. About 24 h after the last dosing of vehicle or Compound I-2, rats were anesthetized, perfused with PBS followed by perfusion with 4% Paraformaldehyde in PBS; brain tissue was collected and placed in a falcon tube covered with 4% Paraformaldehyde (PAF) in PBS for about 14 h at 4° C. and then replaced by PBS with 30% sucrose solution for about 48 h. Brain tissue was cut in 40 μm coronal slices and stored in PBS at 4° C. […] Images from the dorsomedial area around the QA lesion or equivalent area on the control hemisphere were taken using confocal fluorescence microscopy. Images were analyzed using imageJ software to determine the average BDNF intensity in NeuN positive cells.

## Fc1ccccc1Cn1nc(-c2nc(C(F)(F)F)n[nH]2)c2cccnc21 [Compound I-2]
  BDNF averaged intensity in NeuN positive cells around the QA lesion, as compared to vehicle treatment: increase
  BDNF averaged intensity in NeuN positive cells in the dorsomedial striatum without a lesion (control side), as compared to vehicle treatment: increase
